Here are results for 1 compound from publication PMC5099554 (British Journal of Clinical Pharmacology, 2016).

The conditions of series [1]: healthy male subjects, plasma; for AUC(0-inf): AUCinf; for AUC(0-inf) / AUC(0-t): geometric mean; for AUC(0-t): AUClast; for half-life: t 1/2, geometric mean.
Another series concerns CYP1A2. As to conditions: cited from earlier work.
The mark [2] stands for this setting: male, human, in vivo, After FRG, after 2 weeks of fermented red ginseng.
Setting [3] is: male, human, in vivo, Before FRG, before fermented red ginseng.

Where two headings read alike, the source gives them in different places.

Regarding `Cn1c(=O)c2c(ncn2C)n(C)c1=O` [Caffeine, caffeine], in series [1], the “AUCinf, geometric mean ratio, After FRG: Before FRG (90% CI)” value is 1.165 (1.002–1.356); the “AUClast, geometric mean ratio, After FRG: Before FRG (90% CI)” value is reported as 1.128 (0.997–1.277); the “C max, geometric mean ratio, After FRG: Before FRG (90% CI)” value is recorded as 1.002 (0.857–1.171). In series [1] (setting [2]), the AUC(0-inf) amounted to 57500 ng·h/mL, the AUC(0-t) came to 51300 ng·h/mL and the half-life was 6.94 h. In series [1] (setting [3]), this compound gave an AUC(0-inf) of 49300 ng·h/mL, an AUC(0-t) of 45500 ng·h/mL and a half-life of 5.5 h. The Tmax in series [1] (male, human, in vivo, t max (median), Before FRG, before fermented red ginseng) turned out to be 0.5 h. The “fraction metabolized to paraxanthine by CYP1A2” value in the series on CYP1A2 was “over 95%”.

The term AUC(0-inf) denotes total exposure, with the tail of the curve extrapolated. Lower therefore signals low exposure. By AUC(0-t) is commonly meant the area under the concentration-time curve up to a stated or last time point. A word on the half-life: it is the time needed for the level to fall by half in the phase considered. Usually Tmax stands for the time from dosing to the highest level.
